The text below walks through data of the C3SDB collision cross section collection.

The conditions of the data set: [M+H]+; instrument: TW; Major Mix IMS/Tof Calibration Kit (Waters).

With `CN(C)CCCN1c2ccccc2CCc2ccc(Cl)cc21` [Clomipramine], the “collision cross section (N2)” value was found to be 174.3 Å².
As for `Nc1ccc2c(c1)C(c1ccccc1Cl)=NCC(=O)N2` [Clonazepam-M 7-amino], the “collision cross section (N2)” value is given as 162.5 Å².
Consider `COC(=O)[C@H]1[C@@H](OC(=O)c2ccccc2)C[C@@H]2CC[C@H]1N2C` [Cocaine], for which the “collision cross section (N2)” value is recorded as 169.8 Å².
As to `COc1ccc2c3c1O[C@H]1[C@@H](O)C=C[C@H]4[C@@H](C2)N(C)CC[C@@]341` [Codeine], the “collision cross section (N2)” value is on record as 168.2 Å².
The result for `CN1C(=O)CC[C@H]1c1cccnc1` [Cotinine] reads 140.7 Å².
The result for `O=C1C[N+]([O-])=C(c2ccccc2)c2cc(Cl)ccc2N1` [Demoxepam] reads 161.7 Å²; that for `c1ccc(C(c2ccccc2)C2CCCCN2)cc1` (stereo not given) [Desoxypipradrol], 164.1 Å²; that for `O=C1CN=C(c2ccccc2)c2cc(Cl)ccc2N1` [Diazepam-M N-desmethyl], 160.1 Å².
As to `CN1C(=O)CN=C(c2ccccc2)c2cc(Cl)ccc21` [Diazepam], the “collision cross section (N2)” value is 164.2 Å².
For the compound `CCCCOc1cc(C(=O)NCCN(CC)CC)c2ccccc2n1` [Dibucaine], the “collision cross section (N2)” value came to 196.2 Å².
The result for `CNCC[C@H](Oc1cccc2ccccc12)c1cccs1` [Duloxetine] reads 171 Å²; that for `C/C=C1\N(C)C(C)CC1(c1ccccc1)c1ccccc1` (stereo not given) [EDDP], 166.2 Å².
The result for `CCOC(=O)[C@H](CCc1ccccc1)N[C@@H](C)C(=O)N1CCC[C@H]1C(=O)O` [Enalapril] reads 187.2 Å²; that for `CCOC(=O)C(c1ccccc1)C1CCCCN1` (stereo not given) [Ethylphenidate], 159.5 Å²; that for `CC(C)(C(=O)O)c1ccc(C(O)CCCN2CCC(C(O)(c3ccccc3)c3ccccc3)CC2)cc1` (stereo not given) [Fexofenadine], 226.9 Å².
The result for `CNC(C)C(=O)c1ccc(F)cc1` (stereo not given) [Flephedrone] reads 139.8 Å²; that for `COc1ccc2c3c1O[C@H]1C[C@@H](O)C=C[C@@]31CCN(C)C2` [Galantamine], 166.9 Å²; that for `CCC1=C(C)CN(C(=O)NCCc2ccc(S(=O)(=O)NC(=O)NC3CCC(C)CC3)cc2)C1=O` (stereo not given) [Glimepiride], 216.6 Å².
Turning to `Cc1cnc(C(=O)NCCc2ccc(S(=O)(=O)NC(=O)NC3CCCCC3)cc2)cn1` [Glipizide], the “collision cross section (N2)” value is recorded as 198.9 Å².
Regarding `O=C(CCCN1CCC(O)(c2ccc(Cl)cc2)CC1)c1ccc(F)cc1` [Haloperidol], the “collision cross section (N2)” value was 193.7 Å².
With `COc1ccc2c3c1O[C@H]1C(=O)CC[C@H]4[C@@H](C2)N(C)CC[C@]314` [Hydrocodone] the figure was 167.4 Å²; with `OCCOCCN1CCN(C(c2ccccc2)c2ccc(Cl)cc2)CC1` (stereo not given) [Hydroxyzine], 197.4 Å²; with `Cc1ccc(NC(=O)c2ccc(CN3CCN(C)CC3)cc2)cc1Nc1nccc(-c2cccnc2)n1` [Imatinib], 214.6 Å².
Regarding `CC1Cc2ccccc2N1NC(=O)c1ccc(Cl)c(S(N)(=O)=O)c1` (stereo not given) [Indapamide], the “collision cross section (N2)” value is recorded as 185.6 Å².
The result for `COc1ccc2c(c1)c(CC(=O)O)c(C)n2C(=O)c1ccc(Cl)cc1` [Indomethacin] reads 179.5 Å²; that for `CCCCC1=NC2(CCCC2)C(=O)N1Cc1ccc(-c2ccccc2-c2nn[nH]n2)cc1` [Irbesartan], 200.8 Å²; that for `NC1(c2ccccc2Cl)CCCCC1=O` (stereo not given) [Ketamine-M nor], 147.1 Å².
The result for `CNC1(c2ccccc2Cl)CCCCC1=O` (stereo not given) [Ketamine] reads 149.2 Å².
The result for `COc1ccc2c(c1)N(C[C@H](C)CN(C)C)c1ccccc1S2` [Levomepromazine] reads 176.8 Å²; that for `CNC(=O)C(CCN1CCC(O)(c2ccc(Cl)cc2)CC1)(c1ccccc1)c1ccccc1` [Loperamide-M Desmethyl], 218.7 Å².
With `CCOC(=O)N1CCC(=C2c3ccc(Cl)cc3CCc3cccnc32)CC1` [Loratadine], the “collision cross section (N2)” value was 187.4 Å².
With `O=C1Nc2ccc(Cl)cc2C(c2ccccc2Cl)=NC1O` (stereo not given) [Lorazepam] the figure was 165.8 Å²; with `CNC(C)Cc1ccc2c(c1)OCO2` (stereo not given) [MDMA], 144.9 Å²; with `CCCC(C(=O)c1ccc2c(c1)OCO2)N1CCCC1` (stereo not given) [MDPV], 166.7 Å².
Turning to `CCOC(=O)CC(SP(=S)(OC)OC)C(=O)OCC` (stereo not given) [Malathion], the “collision cross section (N2)” value came out at 165.9 Å².
With `NCCCC12CCC(c3ccccc31)c1ccccc12` [Maprotiline-M N-desmethyl] the figure was 163.1 Å².
The result for `Cc1cccc(CN2CCN(C(c3ccccc3)c3ccc(Cl)cc3)CC2)c1` (stereo not given) [Meclozine] reads 208.2 Å².
The result for `CN1CCN=C(c2ccccc2)c2cc(Cl)ccc21` [Medazepam] reads 160.8 Å²; that for `Cc1cnc(NC(=O)C2=C(O)c3ccccc3S(=O)(=O)N2C)s1` [Meloxicam], 173.9 Å².
For the compound `COc1ccc(CN(CCN(C)C)c2ccccn2)cc1` [Mepyramine], the “collision cross section (N2)” value was found to be 169.6 Å².
With `CCC(=O)C(CC(C)N(C)C)(c1ccccc1)c1ccccc1` (stereo not given) [Methadone] the figure was 177.7 Å²; with `COC(=O)C(c1ccccc1)C1CCCCN1` (stereo not given) [Methylphenidate], 154.2 Å²; with `CS(=O)(=O)c1ccc2c(c1)N(CCCN1CCC(C(N)=O)CC1)c1ccccc1S2` [Metopimazine], 196.3 Å².
As for `Cc1ncc([N+](=O)[O-])n1CCO` [Metronidazole], the “collision cross section (N2)” value was 132.4 Å².
With `Cc1ncc2n1-c1ccc(Cl)cc1C(c1ccccc1F)=NC2` [Midazolam] the figure was 172.8 Å²; with `CN1CC[C@]23c4c5ccc(O)c4O[C@H]2[C@@H](O)C=C[C@H]3[C@H]1C5` [Morphine], 164 Å².
The result for `CCc1nn(CCCN2CCN(c3cccc(Cl)c3)CC2)c(=O)n1CCOc1ccccc1` [Nefazodone] reads 211.7 Å².
The result for `Nc1ccc2c(c1)C(c1ccccc1)=NCC(=O)N2` [Nitrazepam-M 7-amino] reads 158.1 Å²; that for `CCOC(=O)C1=C(C)NC(C)=C(C(=O)OC)C1c1cccc([N+](=O)[O-])c1` (stereo not given) [Nitrendipine], 182.2 Å²; that for `Cc1nccn1CC1CCc2c(c3cccc(O)c3n2C)C1=O` (stereo not given) [Ondansetron-M 8-hydroxy], 173.7 Å².
